Measurements as given in patent US7314940B2, “Jun kinase inhibitors” (Eisai Co., Ltd., priority 2001, dated 2008).

Experiments:
Type in all cases: biochemical
[1] = target: JNK3 (Homo sapiens, UniProt P53779); test: JNK3 SPA assay; settings: phosphorylation of GST-c-Jun, 3.33 μM ATP
Protocol: (§1) JNK1, JNK2, JNK3—SPA Assay
(§2) • 1. Compound is dissolved in DMSO to a convenient concentration and this is diluted in 10% DMSO to a five times concentrate of the desired starting concentration (frequently 1: 100). • 2. 10 μl of 500 mM EDTA is added to alternative wells of the Opti-plate row, which will receive kinase reaction plus DMSO. This creates the negative control. • 3. For the JNK2 and JNK3 assay, compounds are prepared in six 2-fold dilutions with water and each concentration is tested in duplicate. For the JNK1 assay compounds are prepared in four 5-fold dilutions with water which are tested in triplicate. Controls are treated identically. • 4. 20 μl per well of each compound concentration is transferred to an Opti-plate, in duplicate. • 5. 30 μl (JNK2/3 SPA) or 50 μl (JNK1 SPA) of substrate solution (25 mM HEPES pH 7.5, 10 mM magnesium acetate with 3.33 μM ATP (JNK2/3) or 2 μM ATP (JNK1), approximately 7.5 kBq [γ-^33P] ATP, GST-c-Jun, in water) is added to each well. • 6. 50 μl (JNK2/3 SPA) or 30 gl (JNK1 SPA) of kinase solution (JNK in 25 mM HEPES pH 7.5, 10 mM Mg Acetate) is added to each well.
(§3) • 7. The plate is incubated for 30 minutes at room temperature. • 8. 100 μl of bead/stop solution is added to each well (5 mg/ml glutathione-PVT-SPA beads, 40 mM ATP in PBS). • 9. Plates are sealed and incubated for 30 minutes at room temperature, centrifuged for 10 minutes at 2500 g and counted. • 10. The IC50 values are calculated as the concentration of the compound being tested at which the phosphorylation of c-Jun is decreased to 50% of the control value.

[2] = target: JNK2 (Homo sapiens, UniProt P45984); test: JNK2 SPA assay; settings: phosphorylation of GST-c-Jun, 3.33 μM ATP
Protocol: as §1, §2, §3

[3] = target: JNK1 (Homo sapiens, UniProt P45983); test: JNK1 SPA assay; settings: phosphorylation of GST-c-Jun, 2 μM ATP
Protocol: as §1, §2, §3

[4] = target: T1, p38 MAP kinase (Homo sapiens, UniProt Q16539); test: p38 ELISA; settings: phosphorylation of GST-ATF2, 50 μM ATP
T1 construct: purchased Upstate
Protocol: Active p38 kinase (100 ng; Upstate) was added to 2 μg GST-ATF2 substrate (NEB) in 250 mM Hepes pH 7.5/100 mM MgAc/50 μM ATP (final) in the presence or absence of compounds in 50 μl. The mixture was incubated at 30° C. for 1 hour, and then diluted with 200 μl PBS-Tween (0.05%). From this, duplicate volumes of 100 μl were added to a Reacti-Bind glutathione coated plate (Pierce) and incubated for 1 hour. After washing 3 times with PBS-Tween (0.05%), rabbit anti-phospho-ATF2 (Thr71) antibody (NEB) was added at 1:500, and incubated for another hour at room temperature. After 3 additional washes with PBS-Tween (0.05%), 100 μl of anti-rabbit IgG alkaline phosphatase-conjugated secondary antibody (Sigma) was added at 1:1000, the reaction was incubated for a further hour, washed 3 times, and then phosphatase substrate (Sigma) was added (100 μl per well; 3 tablets in 5 ml water). After incubation in the dark at 37° C. for 1 hour, the reaction mixture was transferred to a clear 96 well plate, and the absorbance at 405 nm was read. The IC50 values are calculated as the concentration of the compound being tested at which the phosphorylation of ATF2 is decreased to 50% of the control value.

JNK2, sequence (P45984 whole entry): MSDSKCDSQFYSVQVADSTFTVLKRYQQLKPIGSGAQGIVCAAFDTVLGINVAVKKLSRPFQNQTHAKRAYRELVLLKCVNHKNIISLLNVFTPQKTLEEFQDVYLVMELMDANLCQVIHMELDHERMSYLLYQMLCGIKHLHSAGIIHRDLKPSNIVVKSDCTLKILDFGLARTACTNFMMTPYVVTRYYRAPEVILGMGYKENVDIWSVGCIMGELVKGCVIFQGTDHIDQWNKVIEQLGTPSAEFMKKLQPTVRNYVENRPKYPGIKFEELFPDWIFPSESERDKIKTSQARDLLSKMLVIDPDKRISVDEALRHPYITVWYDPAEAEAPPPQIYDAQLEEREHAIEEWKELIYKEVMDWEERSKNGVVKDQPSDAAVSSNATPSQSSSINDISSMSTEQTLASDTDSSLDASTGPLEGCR
JNK1, sequence (P45983 whole entry): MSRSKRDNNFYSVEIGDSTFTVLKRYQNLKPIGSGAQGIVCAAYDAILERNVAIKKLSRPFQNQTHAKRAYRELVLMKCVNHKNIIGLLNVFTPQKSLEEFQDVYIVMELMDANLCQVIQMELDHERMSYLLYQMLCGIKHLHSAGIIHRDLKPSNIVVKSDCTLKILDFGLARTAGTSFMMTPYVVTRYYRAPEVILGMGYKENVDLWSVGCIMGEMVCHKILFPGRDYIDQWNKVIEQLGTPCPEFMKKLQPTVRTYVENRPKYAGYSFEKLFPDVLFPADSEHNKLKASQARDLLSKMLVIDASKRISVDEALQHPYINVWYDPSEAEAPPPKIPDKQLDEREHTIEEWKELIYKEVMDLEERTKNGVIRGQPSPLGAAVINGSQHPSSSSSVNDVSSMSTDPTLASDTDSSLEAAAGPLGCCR
T1 sequence (Q16539 whole entry): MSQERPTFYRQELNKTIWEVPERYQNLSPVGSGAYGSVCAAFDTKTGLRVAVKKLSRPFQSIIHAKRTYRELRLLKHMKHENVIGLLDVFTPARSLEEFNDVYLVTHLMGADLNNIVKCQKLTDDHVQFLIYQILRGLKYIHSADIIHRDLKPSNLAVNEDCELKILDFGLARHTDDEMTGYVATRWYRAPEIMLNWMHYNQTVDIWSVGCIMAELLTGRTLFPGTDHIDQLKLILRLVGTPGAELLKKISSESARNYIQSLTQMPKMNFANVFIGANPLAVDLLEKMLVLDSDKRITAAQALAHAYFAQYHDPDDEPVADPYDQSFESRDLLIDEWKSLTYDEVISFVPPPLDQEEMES
JNK3, sequence (P53779 whole entry): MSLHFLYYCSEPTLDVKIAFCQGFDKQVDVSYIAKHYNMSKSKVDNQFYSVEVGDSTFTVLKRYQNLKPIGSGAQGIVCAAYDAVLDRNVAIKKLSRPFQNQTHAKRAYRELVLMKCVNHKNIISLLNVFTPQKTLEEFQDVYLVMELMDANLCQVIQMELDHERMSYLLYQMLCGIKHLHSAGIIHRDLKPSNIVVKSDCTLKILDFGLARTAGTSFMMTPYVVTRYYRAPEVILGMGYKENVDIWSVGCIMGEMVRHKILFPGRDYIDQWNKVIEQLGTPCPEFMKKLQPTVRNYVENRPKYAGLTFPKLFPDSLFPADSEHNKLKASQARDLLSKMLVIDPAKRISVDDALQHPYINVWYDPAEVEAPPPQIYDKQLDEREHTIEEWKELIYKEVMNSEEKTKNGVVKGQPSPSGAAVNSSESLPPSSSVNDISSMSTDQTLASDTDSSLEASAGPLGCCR

| Structure (SMILES) | IC50 [1] | IC50 [2] | IC50 [3] | IC50 [4] |
| --- | --- | --- | --- | --- |
| CCCNc1nccc(-c2c(-c3ccc(F)cc3)nc3n2[C@H](COc2ccc4ccccc4n2)CC3)n1 | 88 nM | 52 nM | 183 nM | 270 nM |
| CCCNc1nccc(-c2c(-c3ccc(F)cc3)nc3n2[C@@H](COc2ccc4ccccc4n2)CC3)n1 | 295 nM |  |  |  |
| CCCNc1nccc(-c2c(-c3ccc(F)cc3)nc3n2[C@H](Cn2ccc4ccccc42)CC3)n1 | 91 nM | 250 nM | 636 nM | 619 nM |
| CCCNc1nccc(-c2c(-c3ccc(F)cc3)nc3n2[C@@H](Cn2ccc4ccccc42)CC3)n1 | 150 nM |  |  |  |
| CCNc1nccc(-c2c(-c3ccc(F)cc3)nc3n2[C@H](Cn2ccc4cccc(F)c42)CC3)n1 | 61 nM | 125 nM | 125 nM | 696 nM |
| CCNc1nccc(-c2c(-c3ccc(F)cc3)nc3n2[C@H](COc2ncccn2)CC3)n1 | 29 nM | 125 nM | 313 nM | 185 nM |
| O=C(NC[C@@H]1CCc2nc(-c3ccc(F)cc3)c(-c3ccnc(NC4CCC4)n3)n21)c1ccccc1 | 54 nM | 83 nM | 412 nM |  |
| Fc1ccc(-c2nc3n(c2-c2ccnc(NC4CCC4)n2)[C@H](COc2ccnc4ccccc24)CC3)cc1 | 71 nM | 114 nM | 249 nM |  |
| CCNc1nccc(-c2c(-c3ccc(F)cc3)nc3n2[C@H](COc2ccc4cccc([N+](=O)[O-])c4n2)CC3)n1 | 86 nM | 38 nM | 137 nM |  |
| Cc1cc(OC[C@@H]2CCc3nc(-c4ccc(F)cc4)c(-c4ccnc(NC5CCC5)n4)n32)c2ccccc2n1 | 25 nM | 30 nM | 78 nM |  |
| Fc1ccc(-c2nc3n(c2-c2ccnc(NC4CCC4)n2)[C@H](CNc2ccccn2)CC3)cc1 | 38 nM | 126 nM | 524 nM |  |
| CCNc1nccc(-c2c(-c3ccc(F)cc3)nc3n2[C@H](Cn2cccc2)CC3)n1 | 14 nM | 13 nM | 27 nM | 59 nM |
| Fc1ccc(-c2nc3n(c2-c2ccnc(NC4CCC4)n2)[C@H](/C=C/c2cccs2)CC3)cc1 | 53 nM |  | 248 nM |  |
| Fc1ccc(-c2nc3n(c2-c2ccnc(NC4CCC4)n2)[C@H](Cn2ccnc2)CC3)cc1 | 7 nM |  | 22 nM |  |
| Fc1ccc(SC[C@@H]2CCc3nc(-c4ccc(F)cc4)c(-c4ccnc(NC5CCC5)n4)n32)cc1 | 8 nM |  | 92 nM |  |
| COc1ccc(CSC[C@@H]2CCc3nc(-c4ccc(F)cc4)c(-c4ccnc(NC5CCC5)n4)n32)cc1 | 30 nM |  | 94 nM | 148 nM |
| Fc1ccc(-c2nc3n(c2-c2ccnc(NC4CCC4)n2)[C@H](CC2CCCC2)CC3)cc1 | 10 nM |  |  |  |
| CCNc1nccc(-c2c(-c3ccc(F)cc3)nc3n2[C@H](CN2C(=O)CCC2=O)CC3)n1 | 17 nM |  |  |  |
| O=C1CCC(=O)N1C[C@@H]1CCc2nc(-c3ccc(F)cc3)c(-c3ccnc(NC4CCC4)n3)n21 | 6 nM |  | 60 nM |  |
| COc1ccc(COC[C@@H]2CCc3nc(-c4ccc(F)cc4)c(-c4ccnc(NC5CCC5)c4)n32)cc1 | 23 nM |  |  |  |
| COc1ccc(COC[C@H]2CCc3nc(-c4ccc(F)cc4)c(-c4ccnc(NC5CCC5)c4)n32)cc1 | 301 nM |  |  |  |
